In PubChem BioAssay AID248 (DTP/NCI, 2004):
Values joined by “and” are separate entries in the source; they are usually repeats but may differ in a detail not shown here. Equal entries are not always repeated. Toxic doses and inconclusive results are not listed.

Tested on: L1210 leukemia ip in BDF1 mice, survival T/C
Test: NCI In Vivo Anticancer Drug Screen. Data for tumor model L1210 Leukemia (intraperitoneal) in B6D2F1 (BDF1) mice
Conditions: endpoint: mean survival time, higher = longer survival
Outline: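 Mice bearing the transplanted tumor received compound or vehicle. Survival of the treated group was divided by that of the vehicle-treated control group to give the ratio.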

[1] = dose: 100.0 mg/kg/injection, schedule: Q04DX002 (ip), vehicle: Klucel (hydroxypropylcellulose) (HPC)
[2] = dose: 200.0 mg/kg/injection, schedule: Q04DX002 (ip), vehicle: Klucel (hydroxypropylcellulose) (HPC)
[3] = dose: 400.0 mg/kg/injection, schedule: Q04DX002 (ip), vehicle: Klucel (hydroxypropylcellulose) (HPC)
[4] = dose: 25.0 mg/kg/injection, schedule: Q01DX009 (ip), vehicle: Klucel (hydroxypropylcellulose) (HPC)
[5] = dose: 50.0 mg/kg/injection, schedule: Q01DX009 (ip), vehicle: Klucel (hydroxypropylcellulose) (HPC)
[6] = dose: 100.0 mg/kg/injection, schedule: Q01DX009 (ip), vehicle: Klucel (hydroxypropylcellulose) (HPC)
[7] = dose: 100.0 mg/kg/injection, schedule: Q04DX003 (ip), vehicle: Klucel (hydroxypropylcellulose) (HPC)
[8] = dose: 200.0 mg/kg/injection, schedule: Q01DX009 (ip), vehicle: Klucel (hydroxypropylcellulose) (HPC)
[9] = dose: 200.0 mg/kg/injection, schedule: Q04DX003 (ip), vehicle: Klucel (hydroxypropylcellulose) (HPC)
[10] = dose: 400.0 mg/kg/injection, schedule: Q04DX003 (ip), vehicle: Klucel (hydroxypropylcellulose) (HPC)
[11] = dose: 100.0 mg/kg/injection, schedule: Q01DX009 (ip), vehicle: saline
[12] = dose: 200.0 mg/kg/injection, schedule: Q01DX009 (ip), vehicle: saline
[13] = dose: 400.0 mg/kg/injection, schedule: Q01DX009 (ip), vehicle: Klucel (hydroxypropylcellulose) (HPC)
[14] = dose: 100.0 mg/kg/injection, schedule: Q04DX002 (ip), vehicle: saline with Tween-80
[15] = dose: 200.0 mg/kg/injection, schedule: Q04DX002 (ip), vehicle: saline with Tween-80
[16] = dose: 100.0 mg/kg/injection, schedule: Q01DX009 (ip), vehicle: saline with Tween-80
[17] = dose: 100.0 mg/kg/injection, schedule: Q04DX003 (ip), vehicle: saline with Tween-80
[18] = dose: 200.0 mg/kg/injection, schedule: Q01DX009 (ip), vehicle: saline with Tween-80
[19] = dose: 200.0 mg/kg/injection, schedule: Q04DX003 (ip), vehicle: saline with Tween-80
[20] = dose: 400.0 mg/kg/injection, schedule: Q01DX009 (ip), vehicle: saline with Tween-80
[21] = dose: 400.0 mg/kg/injection, schedule: Q04DX003 (ip), vehicle: saline with Tween-80
[22] = dose: 400.0 mg/kg/injection, schedule: Q04DX002 (ip), vehicle: saline with Tween-80
[23] = dose: 100.0 mg/kg/injection, schedule: Q04DX003 (ip), vehicle: saline
[24] = dose: 200.0 mg/kg/injection, schedule: Q04DX003 (ip), vehicle: saline
[25] = dose: 400.0 mg/kg/injection, schedule: Q01DX009 (ip), vehicle: saline
[26] = dose: 400.0 mg/kg/injection, schedule: Q04DX003 (ip), vehicle: saline

## Cc1c(C)c(NC(=O)N(CCCl)N=O)c(C)c(C)c1NC(=O)N(CCCl)N=O
dose: 15.5 mg/kg/injection, schedule: Q01DX001 (ip), vehicle: other
  T/C: 120 % of control
dose: 62.0 mg/kg/injection, schedule: Q01DX001 (ip), vehicle: other
  T/C: 152 % of control
dose: 125.0 mg/kg/injection, schedule: Q01DX001 (ip), vehicle: other
  T/C: 159 % of control and 160 % of control and 207 % of control
dose: 250.0 mg/kg/injection, schedule: Q01DX001 (ip), vehicle: other
  T/C: 203 % of control and 211 % of control and 252 % of control
dose: 375.0 mg/kg/injection, schedule: Q01DX001 (ip), vehicle: other
  T/C: 237 % of control
dose: 500.0 mg/kg/injection, schedule: Q01DX001 (ip), vehicle: other
  T/C: 223 % of control and 283 % of control
dose: 501.0 mg/kg/injection, schedule: Q01DX001 (ip), vehicle: other
  T/C: 115 % of control
dose: 750.0 mg/kg/injection, schedule: Q01DX001 (ip), vehicle: other
  T/C: 151 % of control and 238 % of control
dose: 1000.0 mg/kg/injection, schedule: Q01DX001 (ip), vehicle: other
  T/C: 190 % of control

## CCCCC(C)C1(CC)C(=O)NC(=O)NC1=O (centres undefined)
dose: 75.0 mg/kg/injection, schedule: Q01DX001 (ip), vehicle: saline
  T/C: 95 % of control

## O=C(/C=C\c1ccc(/C=C/C(=O)Nc2cccc(C3=NCCN3)c2)cc1)Nc1cccc(C2=NCCN2)c1
dose: 3.75 mg/kg/injection, schedule: Q01DX Z (ip), vehicle: saline
  T/C: 107 % of control
dose: 7.5 mg/kg/injection, schedule: Q01DX Z (ip), vehicle: saline
  T/C: 120 % of control
dose: 15.0 mg/kg/injection, schedule: Q01DX Z (ip), vehicle: saline
  T/C: 122 % of control
dose: 30.0 mg/kg/injection, schedule: Q01DX Z (ip), vehicle: saline
  T/C: 184 % of control
dose: 60.0 mg/kg/injection, schedule: Q01DX Z (ip), vehicle: saline
  T/C: 189 % of control
dose: 120.0 mg/kg/injection, schedule: Q01DX Z (ip), vehicle: saline
  T/C: 182 % of control
dose: 240.0 mg/kg/injection, schedule: Q01DX Z (ip), vehicle: saline
  T/C: 167 % of control

## O=C(O)c1ccc(F)cc1F
[1]
  T/C: 121 % of control
[2]
  T/C: 105 % of control
[3]
  T/C: 98 % of control

## CCCOC(=O)Cc1cccc2ccccc12
dose: 222.0 mg/kg/injection, schedule: Q01DX Z (ip), vehicle: saline
  T/C: 90 % of control
dose: 333.0 mg/kg/injection, schedule: Q01DX Z (ip), vehicle: saline
  T/C: 96 % of control
dose: 500.0 mg/kg/injection, schedule: Q01DX Z (ip), vehicle: saline
  T/C: 96 % of control

## Cc1cccc(CN2CCN(C(c3ccccc3)c3ccc(Cl)cc3)CC2)c1 (centres undefined)
[4]
  T/C: 100 % of control
dose: 25.0 mg/kg/injection, schedule: Q04DX003 (ip), vehicle: Klucel (hydroxypropylcellulose) (HPC)
  T/C: 100 % of control
[5]
  T/C: 100 % of control
dose: 50.0 mg/kg/injection, schedule: Q04DX003 (ip), vehicle: Klucel (hydroxypropylcellulose) (HPC)
  T/C: 110 % of control
[6]
  T/C: 94 % of control
[7]
  T/C: 105 % of control
[8]
  T/C: 87 % of control
[9]
  T/C: 118 % of control
[10]
  T/C: 89 % of control

## C/C(CCc1ccccc1)=N/N(C)C
dose: 100.0 mg/kg/injection, schedule: Q01DX001 (ip), vehicle: saline
  T/C: 97 % of control
[11]
  T/C: 94 % of control
dose: 200.0 mg/kg/injection, schedule: Q01DX001 (ip), vehicle: saline
  T/C: 95 % of control
[12]
  T/C: 91 % of control
dose: 400.0 mg/kg/injection, schedule: Q01DX001 (ip), vehicle: saline
  T/C: 96 % of control

## O=C1CCCc2c1ccc1ccccc21
[6]
  T/C: 97 % of control
[7]
  T/C: 101 % of control
[9]
  T/C: 103 % of control
[13]
  T/C: 100 % of control
[10]
  T/C: 100 % of control

## O=C(Nc1ccc(Cl)c(Cl)c1)c1ccc(Cl)c(Cl)c1
dose: 50.0 mg/kg/injection, schedule: Q04DX002 (ip), vehicle: saline with Tween-80
  T/C: 94 % of control
[14]
  T/C: 91 % of control
[15]
  T/C: 91 % of control

## COC1(c2ccc(C(F)(F)F)cc2)OC1(C)C (centres undefined)
[16]
  T/C: 98 % of control
[17]
  T/C: 96 % of control
[18]
  T/C: 100 % of control
[19]
  T/C: 102 % of control
[20]
  T/C: 104 % of control
[21]
  T/C: 102 % of control

## O=C(NNC(=S)Nc1cccc(Cl)c1)c1ccncc1
[4]
  T/C: 104 % of control
[5]
  T/C: 96 % of control
[6]
  T/C: 96 % of control

## CCCCCCCCCC(O)CCCC(O)C(O)CCCCCCC(=O)O (centres undefined)
[1]
  T/C: 91 % of control
[2]
  T/C: 91 % of control
[3]
  T/C: 91 % of control

## C#CC(O)(c1ccccc1)c1cc(OC)c(OC)cc1OC (centres undefined)
[17]
  T/C: 101 % of control
[19]
  T/C: 97 % of control
[21]
  T/C: 94 % of control

## CCOc1ccc(NC(=S)NCCc2ccccc2)cc1
[6]
  T/C: 102 % of control
[8]
  T/C: 102 % of control
[13]
  T/C: 105 % of control

## CCN(CC)Cc1cc(N)ccc1O
[11]
  T/C: 106 % of control
[12]
  T/C: 89 % of control

## Cc1ccc(C(C)(O)c2cnc(C)n2Cc2ccccc2)cc1 (centres undefined)
dose: 100.0 mg/kg/injection, schedule: Q01DX001 (ip), vehicle: saline with Tween-80
  T/C: 97 % of control
[16]
  T/C: 95 % of control and 113 % of control
[14]
  T/C: 110 % of control and 92 % of control
[17]
  T/C: 101 % of control
dose: 200.0 mg/kg/injection, schedule: Q01DX001 (ip), vehicle: saline with Tween-80
  T/C: 97 % of control
[18]
  T/C: 98 % of control and 102 % of control
[15]
  T/C: 95 % of control and 97 % of control
[19]
  T/C: 103 % of control
dose: 400.0 mg/kg/injection, schedule: Q01DX001 (ip), vehicle: saline with Tween-80
  T/C: 91 % of control
[20]
  T/C: 91 % of control and 92 % of control
[22]
  T/C: 103 % of control and 88 % of control
[21]
  T/C: 98 % of control

## CN(C)CCNC(=O)N(C)C
[11]
  T/C: 95 % of control
[23]
  T/C: 92 % of control
[12]
  T/C: 98 % of control
[24]
  T/C: 100 % of control
[25]
  T/C: 102 % of control
[26]
  T/C: 97 % of control

## c1ccc2c(c1)Cc1cc3ccccc3cc1-2
dose: 50.0 mg/kg/injection, schedule: Q01DX001 (ip), vehicle: gum acacia
  T/C: 94 % of control
dose: 100.0 mg/kg/injection, schedule: Q01DX001 (ip), vehicle: gum acacia
  T/C: 95 % of control
dose: 200.0 mg/kg/injection, schedule: Q01DX001 (ip), vehicle: gum acacia
  T/C: 94 % of control

## CCCCCCCCCCCCCCCCCCNC(=O)C[N+](C)(C)Cc1ccccc1
dose: 3.13 mg/kg/injection, schedule: Q01DX009 (ip), vehicle: saline with Tween-80
  T/C: 93 % of control
dose: 6.25 mg/kg/injection, schedule: Q01DX009 (ip), vehicle: saline with Tween-80
  T/C: 98 % of control
dose: 12.5 mg/kg/injection, schedule: Q01DX009 (ip), vehicle: saline with Tween-80
  T/C: 89 % of control

## CC(=O)c1ccccc1Cc1cccc2c(Cl)cccc12
[7]
  T/C: 95 % of control
[9]
  T/C: 100 % of control
[10]
  T/C: 88 % of control

## COC(=O)C(N)Cc1ccc(O)c(O)c1 (centres undefined)
[11]
  T/C: 110 % of control
[23]
  T/C: 102 % of control
[12]
  T/C: 112 % of control
[24]
  T/C: 98 % of control
[25]
  T/C: 112 % of control
[26]
  T/C: 102 % of control

## CCOc1ccccc1NC(=O)C1CCCCC1C(=O)O (centres undefined)
dose: 100.0 mg/kg/injection, schedule: Q04DX002 (ip), vehicle: saline
  T/C: 96 % of control
dose: 200.0 mg/kg/injection, schedule: Q04DX002 (ip), vehicle: saline
  T/C: 112 % of control

## COc1ccc(OC(=O)Nc2ccc(Cl)cc2[N+](=O)[O-])cc1
[16]
  T/C: 95 % of control and 96 % of control
[14]
  T/C: 95 % of control and 98 % of control
[17]
  T/C: 97 % of control
[18]
  T/C: 99 % of control and 106 % of control
[15]
  T/C: 95 % of control and 101 % of control
[19]
  T/C: 110 % of control
[20]
  T/C: 99 % of control and 103 % of control
[22]
  T/C: 95 % of control and 98 % of control
[21]
  T/C: 100 % of control
